Measured values taken from patent US6159733A, “Method for photoinactivating malignant cells” (priority 1996, dated 2000).
“Also recorded” adds a separate entry of the source. Read-outs that look alike come from different tables or passages of the source.

Assays:
[1] = test system: BM progenitors (c-kit^+); assay: Uptake of Pc 4 in mixtures of BM and cell lines; assay type: cell-based, murine
Description: (§1) In mixing experiments, aliquots of Ly-5.2 BM and cell lines samples were mixed at different ratios. The combined cell concentration of each sample was 1.5×10^7 cells/mL. […] The cell lines were stained with anti-Ly-5.1^FITC. This treatment allowed clear resolution of the relatively small ABE-8.1/2 and BC3A cells from the bone marrow granulocytes. Immediately prior to the analyses, propidium iodide (PI, 0.5 μg/mL) was added to the samples to allow exclusion of dead cells (PI^+) from the analyses. The samples were analyzed in a FACStar^PLUS (BD) that was equipped with an argon ion laser tuned to 488 nm (200 mW) and a dye laser tuned to 610 nm (300 mW). FITC, PE, PI and Pc 4 fluorescence emissions were collected through 530/30, 575/42, 660/10, 670/10 nm band pass filters, respectively.

[2] = test system: ABE-8.1/2 cells; assay: Uptake of Pc 4 in mixtures of BM and cell lines; assay type: cell-based, murine
Description: as §1

[3] = Photosensitivity of pluripotent stem cells, cobblestone area forming cell (CAFC) assay; assay type: cell-based, murine; details: mouse, bone marrow stem cells, 15 nM
Text: (§2) Animals. C57B1/6 (Ly-5.2) and B6SJ-cd45 ^b pep 3^b /BOY J (Ly-5.1), were obtained from The Jackson Laboratories (Bar Harbor, Me.) and were maintained in the animal facility of the New York Blood Center. After gamma-irradiation, the animals were housed in microisolator cages and provided with autoclaved food and autoclaved acidified water (pH=3) ad libitum. Preparation of bone marrow cell suspensions--Ly-5.1 mice were used as the source of donor BM. Mice (8-10 weeks old) were killed and the BM was harvested by flushing the femoral shafts with Hank's balanced salt solution (HBSS), pH 7.4. The cell suspensions were centrifuged, washed once and the cells were finally resuspended in HBSS--10% vol/vol fetal bovine serum (FBS, Gemini Bioproducts Inc., Calabasas, Calif.).
(§3) Photosensitization. Aliquots of a 1.87 mM Pc 4 (kindly provided by Dr. M. E. Kenney) stock solution in dimethyl sulfoxide were kept at -80° C. in autoclaved brown glass vials. Immediately prior to the photosensitization, Pc4 was thawed and diluted in dimethyl formamide to yield a 10 μM working solution. […] Pc 4 was used at 15 nM throughout the experiments.
(§4) BM and cell line samples, were incubated with 15 nM Pc 4 for two hours at 37° C. at cell concentrations of 1.5×10^7 cells/mL. Aliquots of 1.5 mL were transferred to 24-well plates; separate plates were used for each sample.
(§5) In a second set of experiments, the cells were incubated with 15 nM Pc 4 at cell concentrations of 1.5×10^6 cells/mL. Prior to photoirradiation, the samples were centrifuged and the supernatants were aspirated and set aside. The cell concentrations were adjusted to 1.5×10^7 cells/mL by adding back an appropriate volume of the Pc 4 containing aspirates.
(§6) Photoinactivation. The light source used was a filtered xenon short arc lamp (Versa-Light, Model UV-R6G, Medic Lightech, Ltd., Haifa, Israel). It was used to deliver red light (λ 600-700 nm) to the sensitized cells. After a 20 minute warm up period of the instrument, the distance from the light source to the bottom of the 24-well plate was adjusted to obtain a fluence rate of 26.6 mW/cm^2, as measured with a radiometer (Model IL 1350, International Light, Newburyport, Mass.). Samples were placed under the light source and were stirred during the irradiations. Before and after the irradiations, samples were kept in the dark.
(§7) Cobblestone area forming cell assay. FBMD-1 stromal cells (gift from Dr. Ploemacher) were cultured at 33° C. in a humidified 5% CO2 -incubator in DMEM supplemented with 3.5 mM HEPES, 2 mM glutaMax (GibcoBRL), 10^-7 M sodium selenite, 10^-4 M β-mercaptoethanol, 10% vol/vol fetal calf serum (Gemini Bioproducts, Inc.), 5% vol/vol horse serum and 10^-5 M hydrocortisone 21-hemisuccinate (Breems, D. A., et al. Leukemia 8:1095 (1994); Van der Loo, J. C. M., et al. Blood 85:2598 (1995)). Prior to each experiment, FBMD-1 cells were harvested from log-phase cultures and fresh layers were prepared by seeding 1,000 cells into individual wells of 96-well flat bottom plates. These plates had been incubated overnight with 0.2% (wt/vol) gelatin to improve adherence of the stromal layer. The outer wells of the plates were filled with 100 μL 0.1 N NaOH to reduce infection.
(§8) The FBDM-1 layers were overlaid with the bone marrow samples in a limiting dilution setup; the first wells receiving 180,000-300,000 cells (Breems, D. A., et al., supra). Ten dilutions 2-fold apart were used for each sample with 18 replicate wells per dilution. The cells were cultured at 33° C. in a humidified 5% CO2 -incubator. For each sample, the fraction of wells with at least one phase-dark hematopoietic clone of at least five cells (cobblestone area) was determined weekly and cobblestone area forming cell frequencies (CAFC) were calculated using the dedicated Poison statistics program LimDil (kindly provided by Dr. Jan Hendrikx). After counting, 100 μL medium was removed from the wells and replaced with 100 μL fresh medium.
(§9) Statistics. […]

[4] = test system: pluripotent stem cells; assay: as above; assay type: cell-based, murine
Text: as §2, §3, §4, §5, §6, §7, §8, §9

[5] = test system: parasites; details: blood products; cited from earlier work

Structure (SMILES): CN(C)CCC[Si](C)(C)O[Si]1(O)n2c3c4ccccc4c2N=C2N=C(N=c4c5ccccc5c(n41)=NC1=NC(=N3)c3ccccc31)c1ccccc12 (centres unmarked) [Pc 4, hydroxysiloxy-dimethylpropyl-N-dimethyl silicon phthalocyanine]
- Pc 4 content in c-kit^+ BM ([1]; BM/ABE-8.1/2, BM fraction 0.50): 48 Mean fluorescence/cell
- Pc 4 content in c-kit^+ BM ([1]; BM/ABE-8.1/2, BM fraction 0.70): 52 Mean fluorescence/cell
- Pc 4 content in c-kit^+ BM ([1]; BM/ABE-8.1/2, BM fraction 0.80): 49 Mean fluorescence/cell
- Pc 4 content in c-kit^+ BM ([1]; BM/ABE-8.1/2, BM fraction 0.90): 55 Mean fluorescence/cell
- Pc 4 content in c-kit^+ BM ([1]; BM/ABE-8.1/2, BM fraction 0.95): 62 Mean fluorescence/cell
- Pc 4 content in c-kit^+ BM ([1]; BM/BC3A, BM fraction 0.50): 48 Mean fluorescence/cell
- Pc 4 content in c-kit^+ BM ([1]; BM/BC3A, BM fraction 0.70): 53 Mean fluorescence/cell
- Pc 4 content in c-kit^+ BM ([1]; BM/BC3A, BM fraction 0.80): 61 Mean fluorescence/cell
- Pc 4 content in c-kit^+ BM ([1]; BM/BC3A, BM fraction 0.90): 68 Mean fluorescence/cell
- Pc 4 content in c-kit^+ BM ([1]; BM/BC3A, BM fraction 0.95): 64 Mean fluorescence/cell
- Pc 4 content in c-kit^+ BM ([1]; BM/L1210, BM fraction 0.50): 35 Mean fluorescence/cell
- Pc 4 content in c-kit^+ BM ([1]; BM/L1210, BM fraction 0.70): 43 Mean fluorescence/cell
- Pc 4 content in c-kit^+ BM ([1]; BM/L1210, BM fraction 0.80): 48 Mean fluorescence/cell
- Pc 4 content in c-kit^+ BM ([1]; BM/L1210, BM fraction 0.90): 54 Mean fluorescence/cell
- Pc 4 content in c-kit^+ BM ([1]; BM/L1210, BM fraction 0.95): 60 Mean fluorescence/cell
- Pc 4 content in c-kit^+ BM ([1]; BM/P815, BM fraction 0.50): 45 Mean fluorescence/cell
- Pc 4 content in c-kit^+ BM ([1]; BM/P815, BM fraction 0.70): 51 Mean fluorescence/cell
- Pc 4 content in c-kit^+ BM ([1]; BM/P815, BM fraction 0.80): 64 Mean fluorescence/cell
- Pc 4 content in c-kit^+ BM ([1]; BM/P815, BM fraction 0.90): 63 Mean fluorescence/cell
- Pc 4 content in c-kit^+ BM ([1]; BM/P815, BM fraction 0.95): 64 Mean fluorescence/cell
- Pc 4 content in c-kit^+ BM ([1]; BM/WEHI-3, BM fraction 0.50): 30 Mean fluorescence/cell
- Pc 4 content in c-kit^+ BM ([1]; BM/WEHI-3, BM fraction 0.70): 38 Mean fluorescence/cell
- Pc 4 content in c-kit^+ BM ([1]; BM/WEHI-3, BM fraction 0.80): 46 Mean fluorescence/cell
- Pc 4 content in c-kit^+ BM ([1]; BM/WEHI-3, BM fraction 0.90): 58 Mean fluorescence/cell
- Pc 4 content in c-kit^+ BM ([1]; BM/WEHI-3, BM fraction 0.95): 65 Mean fluorescence/cell
- Pc 4 uptake of BM progenitor fractions in mixtures versus BM alone ([1]; all mixtures (p>0.07)): lower, though not significantly
- Pc 4 uptake in mixtures versus cell line alone ([2]; BM fraction<0.9, versus without BM): lower
- Pc 4 content in cell line ([2]; BM/ABE-8.1/2, BM fraction 0.50): 74 Mean fluorescence/cell
- Pc 4 content in cell line ([2]; BM/ABE-8.1/2, BM fraction 0.70): 86 Mean fluorescence/cell
- Pc 4 content in cell line ([2]; BM/ABE-8.1/2, BM fraction 0.80): 91 Mean fluorescence/cell
- Pc 4 content in cell line ([2]; BM/ABE-8.1/2, BM fraction 0.90): 95 Mean fluorescence/cell
- Pc 4 content in cell line ([2]; BM/ABE-8.1/2, BM fraction 0.95): 100 Mean fluorescence/cell
- viability at 672 h, 0.015 µM ([3]; 1.5×10^6 cells/mL, 3 J/cm^2, two values, read-out: relative CAFC day 28 frequency): 1.8%
- viability at 672 h, 0.015 µM ([3]; 1.5×10^7 cells/mL, 18 J/cm^2, two assays (p=0.69, p=0.78), read-out: relative CAFC frequency on day 28): 91%
- relative CAFC day 28 frequency ([4]; 15 nM, 1.5×10^6 cells/mL, 3 J/cm^2, two values, 40320 min, 0.015 µM): < 0.014
- CAFC frequency compared with untreated samples ([4]; 15 nM, 1.5×10^7 cells/mL, 6 J/cm^2 (p=0.58)): not significantly lower
- CAFC frequency compared with untreated samples ([4]; 15 nM, 1.5×10^7 cells/mL, 12 J/cm^2 (p=0.40)): not significantly lower
- CAFC frequency compared with untreated samples ([4]; 15 nM, 1.5×10^7 cells/mL, 18 J/cm^2 (p=0.26)): not significantly lower
- relative CAFC frequency on day 28 ([4]; 15 nM, 1.5×10^7 cells/mL, 18 J/cm^2, two assays (p=0.69, p=0.78), 40320 min, 0.015 µM): 0.92
- effect on CAFC frequencies / pluripotent stem cells ([4]; 15 nM, 1.5×10^7 cells/mL, after irradiation): not affected after irradiation; also recorded: not damaged
- photoinactivation of the stem cells (CAFC) ([4]; 1.5×10^6 cells/mL): approximately 2 log10
- comparison with MC 540 ([4]; 1.5×10^7 cells/mL, vs Sieber (1987)): compared favorable to MC 540
- sensitivity of c-kit^+,Sca-1^+ BM fraction to photoinactivation ([4]; relative to other cell types): least sensitive
- photoinactivation of parasites [5]: effectively photoinactivate
